Results reported in US20110251135A1, “INHIBITORS OF PERITONEAL SEEDING OF CANCER CELLS” (University of Utah Research Foundation, priority 2008, published 2011).
“And” between values parts separate entries of the source, which are not always exact repeats. Equal values may be shown once.

How the values were obtained:
[1] = test system: HT-29 cells; test: One-hour cell adhesion assay (crystal violet); type: cell-based, human; details: adherent HT-29 pretreated for three days with various concentrations, then one-hour adhesion assay
From the text: FIG. 3 is a group of graphs that show NF-κB inhibitors cause apoptosis of colon cancer cells. […] The data points represent the average percent of annexin V-positive, propidium iodide-negative cells (of the total cells counted) from triplicate experiments. The error bars represent the standard error of the means. […] The results shown are a graphic representation of individual flow cytometry results expressed as the percentage of cells that were annexin V-positive of those that excluded propidium iodide. […] An immunoblot of the lysates for cleaved PARP was performed. Each lane represents equal total protein concentrations. […] The cells were allowed to adhere to plastic dishes for 1 hour after which they were washed gently in PBS and stained with crystal violet. The crystal violet stained cells were solubilized in deoxycholate and the absorbance detected in a spectrophotometer at 590 nm. The adherent cells were expressed as a fraction of the controls. Each data point represents the average of triplicate experiments and the error bars the standard errors of the means.
Even though BAY 11-7085 induced a loss of cell adhesion, it was important to show whether HT-29 cells were actually susceptible to anoikis.

[2] = test system: DLD-1 and HT-29 cells; test: Readhesion survival of cells transduced with IκB super-repressor adenovirus (crystal violet); type: cell-based, human
Procedure: The percentage of apoptotic cells was determined using the annexin V assay. The data points represent the averages of three experiments; bars, +−.SE. E. DLD-1 and F. HT-29 cells were transduced with an adenovirus containing the IκB super-repressor construct. After 3 days, the cells were transiently suspended and allowed to readhere in the presence of subapoptotic concentrations of BAY 11-7085 or DMSO (vehicle) for 8 hours. The data are expressed as fractions of cells surviving compared with the controls (no adenovirus) and were quantitatively determined by staining the remaining adherent cells with crystal violet.
DLD-1 and HT-29 cells that were approximately 60-70% confluent were transduced with Ad-IκB super-repressor by adding 1-50 μL of purified virus to the cells. […] In a parallel experiment, the transduced cells were resuspended and allowed to readhere in BAY 11-7085 for 8 h. The percentage of surviving (nonapoptotic) cells was determined using crystal violet staining.
The specific involvement of NF-κB in the apoptotic mechanism of BAY 11-7085 was examined specifically. […] The transduced DLD-1 and HT-29 cells were then transiently suspended and allowed to readhere at concentrations of BAY 11-7085 below the in vitro apoptotic threshold (>20 μM) for these cell lines. […] Therefore, inhibition of NF-κB is important to the apoptotic effect of BAY 11-7085 during colon cancer cell readhesion.

[3] = test system: HT-29 cells; test: Intraabdominal seeding model, intraperitoneal injection of colon cancer cells into athymic mice (21 days); type: in vivo, mouse; details: HT-29 IP in athymic mice, BAY 11-7085 (1 mg/kg) IP 24 hours earlier, then twice weekly, n = 6
From the text: FIG. 6 is a group of photographs showing an intraabdominal seeding model. FIGS. 6A, B, C show tumor implants of the liver of three athymic mice 21 days after receiving intraperitoneal injections of HT-29 cells. The mice were pretreated and treated for a total of 21 days with DMSO twice weekly. […] The mouse was pretreated and treated for a total of 21 days with DMSO twice weekly. FIG. 6E is a micrograph showing tumor invasion through the liver capsule. This section was obtained from the tumor implant from the mouse in FIG. 6A. […] FIG. 6G, (liver), FIG. 6H, (abdominal wall), and FIG. 6I, (intestinal) show tumor implants in three athymic mice 21 days after receiving intraabdominal injections of HCT-116 cells. All of the mice were treated with 5 mg/kg of BAY 11-7085 twice weekly.
HT-29 and HCT-116 cells were harvested in 0.25% trypsin-PBS-EDTA, washed once in media and PBS, and resuspended in PBS at 1 million cells per 200 μL. […] Subcutaneous tumor sizes were determined by measuring the length and width with calipers. […]
During colorectal cancer surgery, seeding of the peritoneal cavity by tumor cells with tumor cell implantation of the peritoneal surfaces can occur. Seeding results from the transient suspension of cancer cells, through a loss of adhesion either naturally ro because of surgical displacement, followed by readhesion to other tissues. […]

## CC(C)(C)c1ccc(S(=O)(=O)/C=C/C#N)cc1 [BAY 11-7085, (2E)-3-[4-(tertiarybutylphenyl)sulfonyl]-2-propenenitrile]
[1]
  cell adhesion: significant and rapid inhibition of cell adhesion at high concentrations
[2]; DLD-1 and HT-29 cells during readhesion
  in vitro apoptotic threshold: > 20 µM
[2]; DLD-1 and HT-29 expressing IκB super-repressor, readhesion 8 hours
  apoptotic threshold of BAY 11-7085 compared with the controls: significantly lowered the apoptotic threshold
[3]
  Liver Metastases (mice with metastases/n): none of the 6 and 0/6
  Peritoneal Metastases (mice with metastases/n): 2 of 6 and 2/6
